From publication PMC5087659, “The role of ADP-ribosylation in regulating DNA interstrand crosslink repair” (Journal of Cell Science, 2016)

Molecular target: T1, O. sativa APL (Q10MW4) macrodomain (Oryza sativa, UniProt B8ALM5)
T1 construct: gene OsI_11122
Assay: X-ray crystal structure of the complex (co-crystallisation)
Settings: 2 mM ADPr added to protein; crystals in 0.1 M SPG buffer pH 4, 25% PEG 1500, 20 °C; macrodomain binding pocket

T1 sequence (B8ALM5 entry or part of it, one chain of several): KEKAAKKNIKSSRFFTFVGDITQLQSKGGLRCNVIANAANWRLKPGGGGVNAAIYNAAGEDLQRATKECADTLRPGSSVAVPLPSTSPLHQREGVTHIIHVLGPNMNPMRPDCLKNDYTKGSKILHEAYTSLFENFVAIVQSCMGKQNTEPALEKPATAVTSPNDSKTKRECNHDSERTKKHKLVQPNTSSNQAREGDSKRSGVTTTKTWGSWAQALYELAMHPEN

SMILES: Nc1ncnc2c1ncn2[C@@H]1O[C@H](COP(=O)(O)OP(=O)(O)OC[C@H]2OC(O)[C@H](O)[C@@H]2O)[C@@H](O)[C@H]1O (stereo partly shown) [ADP-ribose]
- X-ray crystal structure of the complex (co-crystallisation): We were able to obtain the O. sativa macrodomain in a complex with ADP-ribose
